Measured values reported in PMC11356571, “The Comparative Metabolism of a Novel Hepatocellular Carcinoma Therapeutic Agent, 2,3-Diamino-N-(4-(benzo[d]thiazol-2-yl)phenyl)propanamide, in Human and Animal Hepatocytes” (Metabolites, 2024).

Experiments:
Assay type in all cases: in vitro ADME
[1] = target: T1, CYP2B6 (Homo sapiens, UniProt P20813); test: Incubation with human cDNA-expressed CYP2B6; conditions: CYP2B6, 30 min at 37 °C with NADPH; ETN101 10 μM or M1 1 μM
T1 construct: purchased Cypex Ltd. (Dundee, UK)
T1 sequence (P20813 1-491): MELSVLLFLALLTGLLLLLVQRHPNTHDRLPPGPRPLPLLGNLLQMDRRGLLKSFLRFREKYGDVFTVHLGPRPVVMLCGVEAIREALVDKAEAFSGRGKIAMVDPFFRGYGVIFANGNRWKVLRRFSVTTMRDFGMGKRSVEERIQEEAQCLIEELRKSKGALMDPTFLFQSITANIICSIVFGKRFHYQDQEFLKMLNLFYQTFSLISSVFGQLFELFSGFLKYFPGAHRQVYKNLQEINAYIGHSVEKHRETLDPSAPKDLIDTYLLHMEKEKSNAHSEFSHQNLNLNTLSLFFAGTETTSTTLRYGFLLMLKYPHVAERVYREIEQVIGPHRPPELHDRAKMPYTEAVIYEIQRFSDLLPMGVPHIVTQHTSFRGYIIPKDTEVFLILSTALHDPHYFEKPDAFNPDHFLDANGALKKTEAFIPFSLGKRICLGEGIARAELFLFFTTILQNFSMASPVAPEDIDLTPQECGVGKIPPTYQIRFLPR
Procedure: ETN101 or M1 was incubated with nine human cDNA-expressed CYP enzymes (1A2, 2A6, 2B6, 2C8, 2C9, 2C19, 2D6, 2E1, and 3A4) to identify the CYPs involved in the metabolism of ETN101. Based on the preliminary study, the incubation conditions were determined as follows: Briefly, reaction mixtures of 50 μL containing ETN101 (final concentration: 10 μM) or M1 (final concentration: 1 μM), and CYPs (final amount: 5 pmol for CYP1A2, 2A6, 2C8, 2C9, 2C19, 2D6, and 3A4; 10 pmol for CYP2B6 and 2E1) were prepared in 0.1 M potassium phosphate buffer. The reaction was initiated by adding 50 μL of NADPH- regenerating system; the mixtures were incubated for 0 min or 30 min at 37 °C in triplicate. Reactions were terminated by the addition of 100 μL of ice-cold acetonitrile containing the IS (camptothecin, 200 ng/mL). Samples were centrifuged at 13,000 rpm for 5 min at 4 °C. An aliquot of 2 μL supernatant was injected in LC–MS/MS system.
For enzyme characterization, an Agilent 6460 triple quadrupole mass spectrometer coupled with a 1260 HPLC system (Agilent Technologies, Santa Clara, CA, USA) and a Kinetex Halo® C18 column (2.7 μm, 2.1 × 50 mm, Advanced Material Technology, Wilmington, DE, USA) were used for chromatographic separation. […] ETN101, M1, and M2 were detected via MRM using ESI in the positive mode. […]

[2] = tested on: rat hepatocytes; test: Metabolite characterization in rat hepatocytes; conditions: rat hepatocyte 1 h incubates of ETN101; ND:<1.2E+05 peak area
Procedure: (§1) We mixed 60 μL aliquots of 40 μM ETN101 in incubation medium and an equal volume of human, mouse, rat, dog, or monkey hepatocyte suspension in 96-well plates and incubated for 0 or 1 h in a CO2 incubator at 37 °C. The reactions were quenched by adding 120 µL of ice-cold acetonitrile to each well, and the cell suspension was sonicated for 5 min at 4 °C. Subsequently, centrifugation was carried out at 15,000× g for 10 min at 4 °C. Next, the supernatants were evaporated to dryness using a vacuum concentrator, and residues were re-dissolved in 70 μL of 30% acetonitrile. Each sample (5 μL aliquots) was analyzed using LC–HRMS system.
(§2) For metabolite characterization, a Vanquish HPLC system (Thermo Fisher Scientific, San José, CA, USA) coupled with a Q-Exactive Orbitrap mass spectrometer (Thermo Fisher Scientific Inc., Waltham, MA, USA) was used at Core Research Support Center for Natural Products and Medical Materials at Yeungnam University. […] The eluent from the column was directly injected into the mass spectrometer using a heated electrospray ionization (HESI) source in positive ionization mode. […] The spray voltage was 3.0 kV and the capillary temperature was 320 °C. Full scan MS^1 with a data-dependent MS^2 acquisition mode was applied to obtain MS^1 scan data ranging from m/z 80 to 900, at a resolution of 70,000, whereas data-dependent MS^2 spectra were acquired for the five most abundant peaks per cycle at a resolution of 35,000. The parallel reaction monitoring (PRM) mode was used to obtain the MS^2 spectra of putative metabolites detected at low peak intensities in the data-dependent MS^2 acquisition mode. Data were collected and interpreted using Thermo Scientific Xcalibur™ Software (Thermo Fisher Scientific).

[3] = tested on: human hepatocytes; test: Metabolite characterization in human hepatocytes; conditions: human hepatocyte 1 h incubates of ETN101; ND:<1.2E+05 peak area
Procedure: as §1, §2

[4] = tested on: mouse hepatocytes; test: Metabolite characterization in mouse hepatocytes; conditions: mouse hepatocyte 1 h incubates of ETN101; ND:<1.2E+05 peak area
Procedure: as §1, §2

[5] = target: T2, CYP2C9 (Homo sapiens, UniProt P11712); test: Incubation with human cDNA-expressed CYP2C9; conditions: CYP2C9, 30 min at 37 °C with NADPH; ETN101 10 μM or M1 1 μM; diclofenac positive control
T2 construct: purchased Corning Life Sciences (Woburn, MA, USA)
T2 sequence (P11712 whole entry): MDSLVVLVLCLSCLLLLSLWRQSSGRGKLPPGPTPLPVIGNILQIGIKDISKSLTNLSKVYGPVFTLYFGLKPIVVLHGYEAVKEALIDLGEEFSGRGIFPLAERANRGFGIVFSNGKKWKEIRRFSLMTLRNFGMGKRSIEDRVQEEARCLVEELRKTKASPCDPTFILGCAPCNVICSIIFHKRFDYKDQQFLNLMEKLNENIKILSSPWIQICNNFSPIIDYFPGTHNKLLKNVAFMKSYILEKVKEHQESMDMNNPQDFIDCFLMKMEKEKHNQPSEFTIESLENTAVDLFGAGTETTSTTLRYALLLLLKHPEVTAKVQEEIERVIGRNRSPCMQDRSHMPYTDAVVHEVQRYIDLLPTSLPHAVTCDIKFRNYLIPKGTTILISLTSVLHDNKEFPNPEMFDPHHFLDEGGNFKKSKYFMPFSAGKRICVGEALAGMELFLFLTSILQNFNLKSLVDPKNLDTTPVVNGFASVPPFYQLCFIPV
Procedure: The mobile phases comprised 0.1% (v/v) formic acid in water (mobile phase A) and 0.1% formic acid (v/v) in acetonitrile (mobile phase B). […] The column and auto-sampler were maintained at 40 °C and 4 °C, respectively. ETN101, M1, and M2 were detected via MRM using ESI in the positive mode. […] Mass Hunter software (Agilent Technologies) was used to control the LC-MS/MS instrument and for data processing.

| SMILES | Percentage remaining [1] [%] | Relative peak area (%) [2] [%] | Relative peak area (%) [3] [%] | Relative peak area (%) [4] [%] | Percentage remaining [5] [%] |
| --- | --- | --- | --- | --- | --- |
| NCC(N)C(=O)Nc1ccc(-c2nc3ccccc3s2)cc1 (stereo not shown) [ETN101, 2,3-diamino-N-(4-(benzo[d]thiazol-2-yl)phenyl)propanamide] | 92.8 | 18.7 | 76.4 | 26.8 | 110.8 |
| Nc1ccc(-c2nc3ccccc3s2)cc1 [M1, 2-(4-aminophenyl)benzothiazole] | 109.8 | 75.2 | 21.0 | 71.8 | 80.1 |
